Results from patent publication US7304061B2, “Heterocyclic inhibitors of ERK2 and uses thereof” (Vertex Pharmaceuticals Incorporated, priority 2002, dated 2007).

Biological target: ERK2 (Homo sapiens, UniProt P28482)
Assay: ERK2 inhibition assay (spectrophotometric coupled-enzyme assay)
Format: biochemical
Conditions: activated ERK2 10 nM, 65 μM ATP, 200 μM erktide peptide, 30° C., pH 7.5
Experimental: Compounds were assayed for the inhibition of ERK2 by a spectrophotometric coupled-enzyme assay (Fox et al (1998) Protein Sci 7, 2249). In this assay, a fixed concentration of activated ERK2 (10 nM) was incubated with various concentrations of the compound in DMSO (2.5%) for 10 min. at 30° C. in 0.1 M HEPES buffer, pH 7.5, containing 10 mM MgCl2, 2.5 mM phosphoenolpyruvate, 200 μM NADH, 150 μg/mL pyruvate kinase, 50 μg/mL lactate dehydrogenase, and 200 μM erktide peptide. The reaction was initiated by the addition of 65 μM ATP. The rate of decrease of absorbance at 340 nm was monitored. The Ki and IC50 were evaluated from the rate data as a function of inhibitor concentration.

Sequence of ERK2 (P28482 whole entry, species assumed): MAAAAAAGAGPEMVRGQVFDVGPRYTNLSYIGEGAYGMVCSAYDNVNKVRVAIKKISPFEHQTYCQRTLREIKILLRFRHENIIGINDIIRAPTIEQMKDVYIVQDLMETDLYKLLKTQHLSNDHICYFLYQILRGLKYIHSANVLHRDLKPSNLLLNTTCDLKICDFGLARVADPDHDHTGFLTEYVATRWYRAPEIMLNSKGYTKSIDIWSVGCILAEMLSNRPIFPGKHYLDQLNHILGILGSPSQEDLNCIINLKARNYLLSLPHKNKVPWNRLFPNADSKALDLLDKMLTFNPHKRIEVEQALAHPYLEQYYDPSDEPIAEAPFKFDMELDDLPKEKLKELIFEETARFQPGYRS

Cc1cnc(-c2ccccc2)nc1-c1c[nH]c(C(=O)N[C@H](CO)c2ccccc2)c1 [Compound I-24, 4-(5-Methyl-2-phenyl-pyrimidin-4-yl)-1H-pyrrole-2 carboxylic acid (2-hydroxy-1-(S)-phenyl-ethyl)-amide]
Ki: < 100 nM

CCOc1ncc(C)c(-c2c[nH]c(C(=O)N[C@H](CO)c3ccccc3)c2)n1 [Compound I-22, 4-(5-methyl-2-ethoxy-pyrimidin-4-yl)-1H-pyrrole-2 carboxylic acid (2-hydroxy-1-(S)-phenyl-ethyl)-amide]
Ki: < 100 nM
